Source: PMC9519446, “Discovery of an Orally Active Benzoxaborole Prodrug Effective in the Treatment of Chagas Disease in Non-human Primates” (Nature microbiology, 2022)
“And” between values parts separate entries of the source, which are not always exact repeats. Equal entries are not always repeated.

Experiment: NHP health screening: hematology (CBC)
Format: in vivo, rhesus macaques (Macaca mulatta)
[1] = treated female macaques, post-dosing bleed, Mean
[2] = treated macaques, end of study bleed, individual animals
[3] = treated macaques, mid-dosing bleed, individual animals

Protocol: Under light-anesthesia/sedation, peripheral blood samples were collected from each animal prior to treatment and at 7 time points following. Blood analysis (CBC and serum chemistry assays) and physical exams to evaluate the health of the study animals were performed on each animal prior to the beginning of the study and also at three time points during the treatment protocol (see Supplementary data).

## Cc1c(C(=O)N[C@H](C(=O)OCC2CCOCC2)C(C)C)ccc2c1B(O)OC2 [AN15368]
[1]
  Mcv: 73.5333 fL
  Mono: 0.2561 10^3/µL
  Mpv: 7.553 fL
  Neut: 2.507 10^3/µL
  Plt: 330.353 10^3/µL
  Rbc: 5.521 10^6/µL
  Rdw: 12.4778%
  Wbc: 5.361 10^3/µL
[2]
  Baso: 0.01 10^3/µL and 0.02 10^3/µL and 0 10^3/µL
  Eos: 0.07 10^3/µL and 0.12 10^3/µL and 0.02 10^3/µL and 0.06 10^3/µL and 0.17 10^3/µL and 0.01 10^3/µL and 0.05 10^3/µL and 0.21 10^3/µL and 0.16 10^3/µL and 0.03 10^3/µL
  Hct: 39.5% and 45.3% and 41.2% and 45.7% and 43.1% and 42.5% and 44.2% and 44% and 41.8% and 40.4% and 42.9% and 44.8% and 39.8%
  Hgb: 11.9 G/Dl and 14.7 G/Dl and 12.8 G/Dl and 14.6 G/Dl and 13.3 G/Dl and 13.2 G/Dl and 13.6 G/Dl and 13.7 G/Dl and 13.1 G/Dl and 13 G/Dl and 12.9 G/Dl and 13.4 G/Dl and 12.3 G/Dl
  Lymp: 1.75 10^3/µL and 3.93 10^3/µL and 1.62 10^3/µL and 3.5 10^3/µL and 2.42 10^3/µL and 0.76 10^3/µL and 1.4 10^3/µL and 2.46 10^3/µL and 2.32 10^3/µL and 1.59 10^3/µL and 0.91 10^3/µL and 2.37 10^3/µL and 1.53 10^3/µL and 1.63 10^3/µL
  Mch: 21.9 Pgs and 22.2 Pgs and 23.6 Pgs and 24.2 Pgs and 22.7 Pgs and 21.7 Pgs and 21.5 Pgs and 23.8 Pgs and 22.4 Pgs and 22.3 Pgs and 22.5 Pgs and 22.9 Pgs
  Mchc: 30.1 G/Dl and 32.5 G/Dl and 31.1 G/Dl and 31.9 G/Dl and 30.9 G/Dl and 30.8 G/Dl and 29.6 G/Dl and 31.6 G/Dl and 32.2 G/Dl and 29.9 G/Dl
  Mcv: 72.3 fL and 68.2 fL and 75.6 fL and 75.7 fL and 73.4 fL and 69.9 fL and 73.5 fL and 73.1 fL and 75.2 fL and 69.2 fL and 74.1 fL and 75.4 fL and 74.4 fL
  Mono: 0.25 10^3/µL and 0.23 10^3/µL and 0.17 10^3/µL and 0.37 10^3/µL and 0.36 10^3/µL and 0.48 10^3/µL and 0.3 10^3/µL and 0.21 10^3/µL and 0.2 10^3/µL and 0.44 10^3/µL and 0.26 10^3/µL and 0.29 10^3/µL and 0.12 10^3/µL
  Mpv: 6.3 fL and 7.4 fL and 8.1 fL and 9.7 fL and 8.4 fL and 7 fL and 6.5 fL and 7.9 fL and 7.2 fL and 6.9 fL and 7.3 fL and 6.4 fL
  Neut: 1.44 10^3/µL and 1.12 10^3/µL and 1.09 10^3/µL and 1.69 10^3/µL and 4.26 10^3/µL and 8.57 10^3/µL and 5.95 10^3/µL and 2.2 10^3/µL and 1.94 10^3/µL and 1.95 10^3/µL and 8.94 10^3/µL and 3.94 10^3/µL and 6.95 10^3/µL and 1.75 10^3/µL
  Plt: 418 10^3/µL and 361 10^3/µL and 262 10^3/µL and 246 10^3/µL and 276 10^3/µL and 221 10^3/µL and 490 10^3/µL and 360 10^3/µL and 283 10^3/µL and 257 10^3/µL and 336 10^3/µL and 367 10^3/µL and 446 10^3/µL and 324 10^3/µL
  Rbc: 5.46 10^6/µL and 6.64 10^6/µL and 5.45 10^6/µL and 6.04 10^6/µL and 5.87 10^6/µL and 6.08 10^6/µL and 6.01 10^6/µL and 6.02 10^6/µL and 6.11 10^6/µL and 5.56 10^6/µL and 5.84 10^6/µL and 5.79 10^6/µL and 5.94 10^6/µL and 5.35 10^6/µL
  Rdw: 13.4% and 11.4% and 12.4% and 11.5% and 12.2% and 12.3% and 12.8% and 11.8%
  Wbc: 3.51 10^3/µL and 5.42 10^3/µL and 2.91 10^3/µL and 5.63 10^3/µL and 7.21 10^3/µL and 9.83 10^3/µL and 7.73 10^3/µL and 5.19 10^3/µL and 4.54 10^3/µL and 3.78 10^3/µL and 10.31 10^3/µL and 6.74 10^3/µL and 8.9 10^3/µL and 3.54 10^3/µL
[3]
  Baso: 0.01 10^3/µL and 0.02 10^3/µL and 0 10^3/µL
  Eos: 0.07 10^3/µL and 0.09 10^3/µL and 0.04 10^3/µL and 0.06 10^3/µL and 0.16 10^3/µL and 0.08 10^3/µL and 0.05 10^3/µL and 0.18 10^3/µL and 0.19 10^3/µL and 0.2 10^3/µL and 0.02 10^3/µL and 0.26 10^3/µL
  Hct: 41.2% and 42.7% and 40.7% and 46.1% and 39.7% and 43.4% and 40% and 40.3% and 41.5% and 41.9% and 42% and 39.6% and 43.3% and 43.7% and 42.6% and 38.2% and 38.9% and 39.9%
  Hgb: 13.1 G/Dl and 14.2 G/Dl and 12.7 G/Dl and 14.6 G/Dl and 12.8 G/Dl and 13.9 G/Dl and 13.4 G/Dl and 13.5 G/Dl and 12.5 G/Dl and 12.6 G/Dl and 14 G/Dl and 13.6 G/Dl and 11.9 G/Dl and 12.9 G/Dl
